Here are results for ten molecules from ChEMBL document CHEMBL1764989, “Local structural changes, global data views: graphical substructure-activity relationship trailing” (J Med Chem, 2011).

For the experiment, the target named is Coagulation factor X (Homo sapiens, UniProt P00742). Briefly: Inhibition of human factor 10a.

As a reminder, the Ki is a dissociation constant, usually derived from enzyme kinetics or from competition with a known ligand. Read a high Ki as weaker binding.

Sequence of Coagulation factor X (P00742 41-179 limits assumed): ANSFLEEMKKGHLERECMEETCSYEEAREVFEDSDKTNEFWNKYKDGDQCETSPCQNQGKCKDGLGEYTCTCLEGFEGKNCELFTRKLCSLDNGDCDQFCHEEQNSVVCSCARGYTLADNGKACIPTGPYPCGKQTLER
Sequence of Coagulation factor X (P00742 235-488 limits assumed): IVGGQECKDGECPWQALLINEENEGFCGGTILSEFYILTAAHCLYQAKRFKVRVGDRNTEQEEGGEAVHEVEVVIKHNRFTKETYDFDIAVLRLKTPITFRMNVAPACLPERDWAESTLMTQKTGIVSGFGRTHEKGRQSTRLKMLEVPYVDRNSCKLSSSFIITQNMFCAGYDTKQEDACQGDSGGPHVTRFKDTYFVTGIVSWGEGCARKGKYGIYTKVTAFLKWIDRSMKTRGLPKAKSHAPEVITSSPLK

In the case of `COc1ccc(-n2nc(C(F)(F)F)c3c2C(=O)N(c2ccc(-c4ccccc4CN4CCC(O)C4)cc2)CC3)cc1` (stereo not given), the Ki was 0.501 nM. Under `COc1ccc(-n2nc(C(F)(F)F)c3c2C(=O)N(c2ccc(-c4ccccc4S(C)(=O)=O)cc2)CC3)cc1` stands 0.2 nM; under `COc1ccc2ccc(S(=O)(=O)NC3CCN(Cc4ccc(O)c(C(=N)N)c4)C3=O)cc2c1` (stereo not given), 1000 nM; under `COc1ccc2ccc(S(=O)(=O)NC3CCN(Cc4cc(C(=N)N)ccc4O)C3=O)cc2c1` (stereo not given), 3.16 nM. Molecule `COc1ccc2ccc(S(=O)(=O)NC3CCN(Cc4cc(C(=N)N)ccc4N)C3=O)cc2c1` (stereo not given) showed a Ki of 6.31 nM. Turning to `COc1ccc(-n2nc(C(F)(F)F)c3c2C(=O)N(c2ccc(NC(C)=O)cc2)CC3)cc1`, affinity was put at a Ki of 200 nM.

`COc1ccc(-n2nc(C(F)(F)F)c3c2C(=O)N(c2ccc(N(C)C)cc2)CC3)cc1` showed a Ki of 6.31 nM.

Consider `COC(=O)COc1ccc(C(=N)N)cc1CN1CCC(NS(=O)(=O)c2ccc3ccc(OC)cc3c2)C1=O` (stereo not given), for which the affinity corresponds to a Ki of 7.94 nM. With `COc1ccc2ccc(S(=O)(=O)NC3CCN(Cc4cc(N)cc(C(=N)N)c4)C3=O)cc2c1` (stereo not given) the figure was 1260 nM.

Molecule `COc1ccc2ccc(S(=O)(=O)NC3CCN(Cc4cc(C(=N)N)ccc4OCC(=O)O)C3=O)cc2c1` (stereo not given) had a Ki of 1260 nM.
